Experiments:
Type in all cases: in vivo, rabbit
[1] = tested on: α-smooth muscle actin (SMA) myofibroblast marker; experiment: DMR model: IHC for SMA and keratocan, area of SMA-positive posterior fibrosis (QuPath)
Experimental: (§1) The rabbits had general anaesthesia with 30 mg/kg ketamine hydrochloride and 5 mg/kg xylazine by IM injection. In addition, topical proparacaine hydrochloride 1% (Alcon, Ft Worth, TX, USA) was applied to each eye prior to the surgery. One cornea selected at random in each group either had sham surgery without Descemetorhexis or an 8 mm diameter central Descemet's membrane-endothelial excision. The time point of one month after surgery was selected for the study because myofibroblasts and fibrosis in the posterior cornea was maximal at this time point in a prior time course Descemetorhexis study (Sampaio et al., 2021). Descemetorhexis was performed as described in the prior study (Sampaio et al., 2021). Briefly, a wire lid speculum was placed into one eye of each rabbit and an 8 mm diameter gentian violet circle was marked on the epithelial surface for reference. A limbal entry incision was created with a 1.6 mm blade (Bausch and Lomb, Rochester, NY, USA) and 0.3 ml Healon OVD (Abbott Medical Optics Inc. Santa Ana, CA, USA) was injected into the anterior chamber. A reversed Sinskey hook (Katena, Denville, New Jersey, USA) was placed into the anterior chamber and an 8 mm diameter disc of Descemet's membrane and endothelium was excised underlying the 8 mm area previously marked on the anterior corneal surface, without a subsequent endothelial corneal transplant. No removal of Descemet's membrane or endothelium was performed in unwounded sham surgery eyes. Remaining Healon OVD was removed with a Simcoe irrigation and aspiration cannula (Bausch & Lomb, Storz, Rochester, NY, USA) and the anterior chamber was filled with balanced salt solution (BSS). A single 10-0 nylon suture was placed at the incision site to prevent leakage from the anterior chamber. One drop of ciprofloxacin (Alcon, Ft. Worth, TX, USA) was applied to the corneas immediately after surgery and four times a day until the epithelium entry wound healed at approximately 2 days.
(§2) The oral solution was prepared with 5 ml distilled water+50 ml ora-plus (suspending vehicle—Perrigo, Dublin, Ireland)+45 ml Ora-sweet (flavored syrup vehicle—Perrigo).
At one month after surgery and treatment, an intravenous injection of 100 mg/kg Beuthanasia (Shering-Plough, Kenilworth, NJ) was given for euthanasia with the animals under general anaesthesia. Sharp Westcott scissors (Fairfield, CT, USA) and 0.12 forceps (Storz, St. Louis, MO) were used to remove the corneo-scleral rims of the sham unwounded and DMR eyes without touching the cornea. Each cornea was set in the center of a 24×24×5 mm mold (Fisher Scientific, Pittsburgh, PA, USA) and the mold was filled in liquid OCT compound (Sakura Finetek, Torrance, CA, USA). The molds and cornea-scleral rims were quick frozen on dry ice and stored at −80° C. until sections were cut.
Each OCT block was bisected in the exact center of the cornea, and 8 μm thick transverse sections were cut from the central cornea within the previous DMR injury or unwounded sham surgery corneas with a cryostat (HM 505M; Micron GmbH, Walldorf, Germany) and three sections per slide were placed on 25 mm×75 mm×1 mm Superfrost Plus microscope slides (Fisher Scientific, Pittsburgh, PA, USA). Slides were maintained at −20° C. until immunohistochemistry.
(§3) Duplex immunohistochemistry (IHC) was performed after masking of slides by a researcher not involved in the analysis using previously described methods (de Oliveira et al., 2021) using primary antibodies (Table 2) confirmed by western blotting and IHC to recognize rabbit antigens or isotypic control antibodies (ThermoFisher Scientific, Waltham, MA), and secondary fluorescent tagged antibodies (Table 3).
The area of the SMA-positive posterior fibrotic stroma was quantitated with the original groups masked to the analyzer by standardized photography with a 10× objective on a Leica DM6B upright microscope equipped with an automated stage and Leica 7000 T camera using the LAS X software (Leica Microsystems, GmbH, Wetzlar, Germany). […]

[2] = tested on: collagen type IV; experiment: DMR model: IHC collagen type IV intensity in posterior stroma (ImageJ); settings: one month
Experimental: as §1, §2, §3
The AB769 (Millipore, Temecula CA) collagen type IV antibody used in this study was generated against purified human and bovine collagen type IV, affinity purified with human and bovine collagen type IV crosslinked to agarose and cross-absorbed by the manufacturer with human and bovine collagens type I, II, III, V and VI to eliminate cross-reactivity. […]
Collagen type IV intensity in immunohistochemistry images was quantitated in 0.75 W×0.5H rectangles of posterior stroma tangent to the posterior corneal surface using ImageJ on 7.62 cm wide×5.69 cm height and 300 DPI images generated using standardized microscopic illumination settings applied to all sections. The quantitation rectangles were positioned such that the posterior side of the rectangle was tangent to the posterior corneal surface just anterior to Descemet's membrane, if one was present, in the analysed specimens. […]

[3] = tested on: corneal neovascularization (CNV); experiment: Alkali burn model: central corneal neovascularization (corneal angiography); settings: four corneas in each group, topical six times per day, one month
Experimental: Alkali injuries were produced in one eye of rabbits with previously published methods^10 using 1N sodium hydroxide (Sigma, St. Louis, MO) in balanced salt solution (BSS, 0.64% sodium chloride, 0.075% potassium chloride, 0.048% calcium chloride dihydrate, […] magnesium chloride hexahydrate, 0.39% sodium acetate trihydrate, 0.17% sodium citrate dihydrate, pH 7.5, Alcon, H. Worth, TX) and a 5 mm diameter circular Whatman No. 1 filter paper (Cat #1001-6508, Fisher Scientific) wetted with 100 μl of 1N NaOH solution. Following the alkali burn injury, the cornea was irrigated profusely with BSS. Each injured cornea also received one drop of ciprofloxacin (Alcon, Ft. Worth, TX, USA) ten minutes after surgery and four times a day for one week and at least 15 minutes apart from the study medications.
Worth TX), at least 5 minutes apart, or 4) 50 μl of BSS.
All corneas had fluorescent angiography at the peak of dye passage in the cornea immediately after injection of 1.5 ml of 10% sodium fluorescein (McKesson, Irvine, TX) in the central ear vein with the slit lamp system and digital camera system using a “barrier filter” that only transmitted 520-530 nm, the peak of fluorescein emission, with broad illumination of the cornea, as previously described.^11

[4] = topical losartan and oral losartan

For `CCCCc1nc(Cl)c(CO)n1Cc1ccc(-c2ccccc2-c2nn[nH]n2)cc1` [losartan], the “mean area of the SMA-positive posterior fibrotic area among DMR groups” value ([1]; DMR, oral losartan alone, one month) was “highest”, the “mean SMA-positive posterior fibrotic area compared to the other DMR groups” value ([1]; DMR, topical 0.4 mg/ml six times a day) was “significantly lower” and the “SMA-positive fibrotic zone in the posterior cornea” value ([1]; DMR, topical 0.4 mg/ml six times per day, one month) was “marked decrease”. For the same compound, the “SMA-positive fibrosis in the posterior cornea” value ([1]; DMR, topical six times per day and oral three times per day, one month) was “decrease”, the “SMA-positive posterior corneal fibrosis in uninjured corneas” value ([1]; oral losartan three times a day) was “did not develop SMA-positive posterior corneal fibrosis” and the “SMA-positive posterior corneal fibrosis in uninjured corneas” value ([1]; topical losartan six times a day) was “did not develop SMA-positive posterior corneal fibrosis”. The “collagen type IV production in the posterior stroma” value ([2]; oral losartan alone) was “no significant effect”, the “collagen type IV localization in posterior stroma (IHC)” value ([2]; topical losartan alone) was “primarily detected adjacent to the posterior surfaces” and the “collagen type IV vs DMR corneas treated with topical losartan alone” value [2, 4] was “not different”. The “posterior stromal collagen type IV production compared to topical vehicle and oral vehicle (ImageJ intensity)” value [2, 4] was “significantly decreased”, the “posterior stromal collagen type IV production compared to topical vehicle and oral vehicle (ImageJ intensity)” value ([2]; topical losartan) was “significantly decreased” and the “corneas in which central corneal neovascularization developed” value [3] was “two”.

Reference: patent US20240350402A1, “TOPICAL DRUG TREATMENT TO PREVENT OR REDUCE CORNEAL SCARRING” (The Cleveland Clinic Foundation, priority 2021, published 2024)
